US4646832A, “Determining residual oil saturation by injecting salts of carbonic and halocarboxylic acids” (Shell Oil Company, priority 1985, dated 1987)
Like-named read-outs stand apart in the source and are kept apart here. Blank lines part the entries; values can stand above or below the compound they belong to.

Tests used:
[1] = 50 psig, 0.05 mol/liter acid salt, 0.5 mol/liter NaCl
Text: In each case, the solution was maintained at a pressure of 50 psig during each test. The pH of the solution was maintained substantially constant by adding portions of 0.1 mol/liter sodium bicarbonate solution to the system while the hydrolysis was proceeding. Each acid generator solution consisted of water containing 0.5 mol/liter sodium chloride and 0.05 mols/liter of the indicated halocarboxylic acid salt.
*^1 This is the time, in hours, required for the acid generator to be
onehalf reacted to form CO2 or acid.

[2] = Best estimate of applicable temperature range of CO2 generators (Table I); format: physicochemical; conditions: best estimate of the applicable temperature range as CO2 generator

SMILES: O=C(O)CCl [Monochloroacetic acid]
Half Life, t1/2 ([1]; Test 8, 182 °F, pH 7.0): 127.9 h | Half Life, t1/2 ([1]; Test 9, 198 °F, pH 7.0): 49.4 h

SMILES: O=C(O)CBr [Bromoacetic acid]
Half Life, t1/2 ([1]; Test 16, 167 °F, pH 5.5): 17.3 h | Half Life, t1/2 ([1]; Test 17, 166 °F, pH 7.0): 12.5 h | Half Life, t1/2 ([1]; Test 18, 143 °F, pH 7.0): 171.4 h | Half Life, t1/2 ([1]; Test 19, 156 °F, pH 6.2): 32.6 h | Half Life, t1/2 ([1]; Test 20, 140 °F, pH 6.2): 136.9 h | Half Life, t1/2 ([1]; Test 21, 124 °F, pH 6.2): 319.2 h

SMILES: CC(Cl)C(=O)O (stereo not drawn) [2-Chloropropionic acid]
Half Life, t1/2 ([1]; Test 25, 130 °F, pH 6.2): 73.1 h | Half Life, t1/2 ([1]; Test 26, 114 °F, pH 6.2): 598.5 h

SMILES: CC(Cl)CC(=O)O (stereo not drawn) [3-Chlorobutyric acid]
Half Life, t1/2 ([1]; Test 22, 125 °F, pH 6.2): 13.2 h | Half Life, t1/2 ([1]; Test 23, 99 °F, pH 6.2): 29.2 h | Half Life, t1/2 ([1]; Test 24, 102 °F, pH 6.2): 80.0 h

Second part, the compound after the results:

Half Life, t1/2 ([1]; Test 1, 138 °F, pH 8.0): 43.5 h | Half Life, t1/2 ([1]; Test 2, 140 °F, pH 7.0): 16.1 h | Half Life, t1/2 ([1]; Test 3, 133 °F, pH 6.2): 27.9 h | Half Life, t1/2 ([1]; Test 4, 133 °F, pH 5.5): 30.4 h | Half Life, t1/2 ([1]; Test 5, 113 °F, pH 5.5): 114.0 h | Half Life, t1/2 ([1]; Test 6, 117 °F, pH 6.2): 95.8 h | Half Life, t1/2 ([1]; Test 7, 114 °F, pH 7.0): 130.1 h
SMILES: O=C(O)CCCl [3-Chloropropionic acid]

Temperature Range [2]: > 300 °F. | Half Life, t1/2 ([1]; Test 12, 212 °F, pH 7.0): 3,113 hours | Half Life, t1/2 ([1]; Test 13, 212 °F, pH 6.2): 2,543 hours | Half Life, t1/2 ([1]; Test 14, 204 °F, pH 8.0): 3,906 hours | Half Life, t1/2 ([1]; Test 15, 251 °F, pH 8.0): 2,335 hours
SMILES: O=C(O)c1ccccc1Cl [O--Chlorobenzoic acid]

Half Life, t1/2 ([1]; Test 10, 197 °F, pH 7.0): 111.8 h | Half Life, t1/2 ([1]; Test 11, 221 °F, pH 7.0): 23.0 h
SMILES: O=C(O)C(Cl)Cl [Dichloroacetic acid]
